“And” between values parts separate entries of the source, which are not always exact repeats. Identical values can stand only once.
Legend:
[1] = tested on: GF-D8; assay: Cell proliferation assay: GI50; format: cell-based
Procedure: (§1) Cell proliferation was analyzed using the CellTiter 96 Aqueous One Solution Cell Proliferation Assay (Promega, Madison, WI). This is a colorimetric method for determining the number of viable cells in proliferation. For the assay, suspension cells were cultured in triplicate at a density of 1 × 10^6 cells/mL in 96-well plates (100.000 cells/well, 100 µL/well), using only the 60 inner wells to avoid any border effects. After 48 h of treatment with different doses of each compound (0, 0.001, 0.01, 0.1, 0.2, 0.4, 0.6, 0.8, 1, 2, 3, 4, 5 and 10 µM), the plates were centrifuged at 800 g for 10 min followed by removal of the medium. Then, the cells were incubated with 100 μL/well of medium and 20 μL/well of CellTiter 96 Aqueous One Solution reagent for 1–3 h. The absorbance was recorded at 490 and 650 nm as reference wavelengths using 96-well plate readers until the absorbance of the control cells without treatment was approximately 0.8 AU. The background absorbance was measured in wells with only cell line medium and solution reagent. First, the average of the absorbance from the control wells was subtracted from all other absorbance values. Data were calculated as the percentage of total absorbance of treated cells/absorbance of non-treated cells. The GI50 values of the different compounds were determined using non-linear regression plots made with GraphPad Prism v5 software.

[2] = tested on: HEL; assay: Cell proliferation assay: GI50; format: cell-based
Procedure: as §1

[3] = tested on: KASUMI-1; assay: Cell proliferation assay: GI50; format: cell-based
Procedure: as §1

[4] = tested on: M-07e; assay: Cell proliferation assay: GI50; format: cell-based
Procedure: as §1

[5] = tested on: MONO-MAC-6; assay: Cell proliferation assay: GI50; format: cell-based
Procedure: as §1

[6] = tested on: NB-4; assay: Cell proliferation assay: GI50; format: cell-based
Procedure: as §1

[7] = tested on: OCI-AML2; assay: Cell proliferation assay: GI50; format: cell-based
Procedure: as §1

[8] = tested on: OCI-AML3; assay: Cell proliferation assay: GI50; format: cell-based
Procedure: as §1

[9] = tested on: TF-1; assay: Cell proliferation assay: GI50; format: cell-based
Procedure: as §1

[10] = tested on: THP-1; assay: Cell proliferation assay: GI50; format: cell-based
Procedure: as §1

[11] = tested on: UT-7; assay: Cell proliferation assay: GI50; format: cell-based
Procedure: as §1

[12] = tested on: HL-60; assay: Differentiation-apoptosis assay, CD11b / annexin-V / Sytox Green / myeloid markers flow cytometry; format: cell-based, human
Procedure: Next, the cells were washed twice with phosphate-buffered saline (PBS) and resuspended in 1X Binding Buffer at a concentration of 1 × 10^6 cells/mL. […] Finally, after the addition of 400 µL of 1X Binding Buffer to each tube, samples were collected on a BD FACSCanto flow cytometer (Becton Dickinson, San Jose, CA, USA) and analyzed using FlowJo software.
Then, 1 million cells (volume of 250 µL) were added and incubated for 30 min at room temperature in darkness. After 10 min incubation at room temperature with 2 mL of FACSLysing 1X, cells were centrifuged at 540 g for 5 min and washed twice with FACSBuffer. Finally, after centrifugation at 540 g for 5 min cells were resuspended in FACSBuffer.

[13] = tested on: MV4-11; assay: as above; format: cell-based, human; conditions: MV4-11 cell line; replicates 1-3 (Figure 2A)
Procedure: Next, the cells were washed twice with phosphate-buffered saline (PBS) and resuspended in 1X Binding Buffer at a concentration of 1 × 10^6 cells/mL. An 8-µL aliquot of APC-CD11b (BD Pharmingen, Franklin Lakes, NJ, USA) and 1 µL of FITC annexin-V (AV) (BD Pharmingen, Franklin Lakes, NJ, USA) antibodies were added and incubated for 15 min at room temperature in the dark. Finally, after the addition of 400 µL of 1X Binding Buffer to each tube, samples were collected on a BD FACSCanto flow cytometer (Becton Dickinson, San Jose, CA, USA) and analyzed using FlowJo software.
For the rest of experiments, the mix of antibodies (2 µL of BV786-CD13, Cat No, 744748 BD; 1 µL of diluted 1:10 antibody of PB-HLADR, Cat No 307633, Biolegend; 5 µL of APCH7-CD14, Cat No 641394, BD) was added to 10 µL of Brilliant Stain Buffer Plus (Becton Dickinson, San Jose, CA, USA). Then, 1 million cells (volume of 250 µL) were added and incubated for 30 min at room temperature in darkness. After 10 min incubation at room temperature with 2 mL of FACSLysing 1X, cells were centrifuged at 540 g for 5 min and washed twice with FACSBuffer. Finally, after centrifugation at 540 g for 5 min cells were resuspended in FACSBuffer.

CC1=C(/C=C/C(C)=C/C=C/C(C)=C/C(=O)O)C(C)(C)CCC1 [ATRA, all-trans retinoic acid, reference compound]
GI50 ([1]; 48 h, GF-D8, 48 h): > 10 µM
GI50 ([1]; GF-D8, replicates 1-3): > 10 µM
GI50 ([2]; Homo sapiens, 48 h): > 10 µM
GI50 ([2]; Homo sapiens, replicates 1-3): > 10 µM
GI50 ([2]; replicates 1-3): > 10 µM
GI50 ([3]; Homo sapiens, Kasumi 1, 48 h, KASUMI-1, 48 h): > 10 µM
GI50 ([3]; Homo sapiens, Kasumi 1, KASUMI-1, replicates 1-3): > 10 µM
GI50 ([3]; KASUMI-1, replicates 1-3): > 10 µM
GI50 ([4]; 48 h): > 10 µM
GI50 ([4]; replicates 1-3): > 10 µM
GI50 ([5]; Homo sapiens, MONO-MAC-6, 48 h): > 10 µM
GI50 ([5]; Homo sapiens, MONO-MAC-6, MONO-MAC-6, replicates 1-3): > 10 µM
GI50 ([5]; MONO-MAC-6, replicates 1-3): > 10 µM
GI50 ([6]; Homo sapiens, NB-4, 48 h): > 10 µM
GI50 ([6]; Homo sapiens, NB-4, NB-4, replicates 1-3): > 10 µM
GI50 ([6]; NB-4, replicates 1-3): > 10 µM
GI50 ([7]; Homo sapiens, OCI-AML2, 48 h): > 10 µM
GI50 ([7]; Homo sapiens, OCI-AML2, OCI-AML2, replicates 1-3): > 10 µM
GI50 ([7]; OCI-AML2, replicates 1-3): > 10 µM
GI50 ([8]; Homo sapiens, OCI-AML-3, OCI-AML3, 48 h): > 10 µM
GI50 ([8]; Homo sapiens, OCI-AML-3, OCI-AML3, replicates 1-3): > 10 µM
GI50 ([8]; OCI-AML3, replicates 1-3): > 10 µM
GI50 ([9]; Homo sapiens, TF-1, 48 h): > 10 µM
GI50 ([9]; Homo sapiens, TF-1, TF-1, replicates 1-3): > 10 µM
GI50 ([9]; TF-1, replicates 1-3): > 10 µM
GI50 ([10]; Homo sapiens, THP-1, 48 h): > 10 µM
GI50 ([10]; Homo sapiens, THP-1, replicates 1-3): > 10 µM
GI50 ([10]; THP-1, replicates 1-3): > 10 µM
GI50 ([11]; Homo sapiens, UT7, 48 h, UT-7, 48 h): > 10 µM
GI50 ([11]; Homo sapiens, UT7, UT-7, replicates 1-3): > 10 µM
GI50 ([11]; UT-7, replicates 1-3): > 10 µM
Annexin V (%) Replicate 1 ([12]; HL-60, daily 25% GI50, 48 h): 0.34%
Annexin V (%) Replicate 2 ([12]; HL-60, daily 25% GI50, 48 h): 0.98%
Annexin V (%) Replicate 3 ([12]; HL-60, daily 25% GI50, 48 h): 0.97%
CD11b (%) Replicate 1 ([12]; HL-60, daily 25% GI50, 48 h): 10.12%
CD11b (%) Replicate 2 ([12]; HL-60, daily 25% GI50, 48 h): 15.48%
CD11b (%) Replicate 3 ([12]; HL-60, daily 25% GI50, 48 h): 12.56%
CD11b (%) ([12]; HL-60 cell line, replicates 1-3 (Figure 2A)): 10.3% and 15.8% and 12.06%
CD11b (%) [13]: 9.6% and 4.7% and 11.86%

Reference: paper PMC11219871, “Epigenetic-based differentiation therapy for Acute Myeloid Leukemia” (Nature Communications, 2024)
